Measurements: ChEMBL document CHEMBL5143576, “Tigliane Diterpenoids with Larvicidal, Antifungal, and α-Glucosidase Inhibitory Activities from Croton damayeshu” (J Nat Prod, 2022)
In brackets after ≈: the same amount, converted by molar mass.

Columns and labels:
Type in all cases: functional
[1] = test system: Plutella xylostella; experiment: Larvicidal activity against Plutella xylostella assessed as mortality and measured upto 4 days; settings: 96 h, time <= 4 day
[2] = test system: Candida albicans; experiment: Antifungal activity against Fluconazole- resistant Candida albicans incubated for 24 hrs in presence of fluconazole by microbroth dilution method
[3] = test system: Candida albicans; experiment: Antifungal activity against Fluconazole- resistant Candida albicans incubated for 24 hrs by microbroth dilution method
[4] = test system: Candida albicans; experiment: Antifungal activity against Candida albicans incubated for 24 hrs by microbroth dilution method

| Structure (SMILES) | LC50 [1] [nM] | MIC50 [2] [µg/mL] | MIC50 [3] [µg/mL] | MIC50 [4] [µg/mL] |
| --- | --- | --- | --- | --- |
| Cc1cc(C(F)(C(F)(F)F)C(F)(F)F)ccc1NC(=O)c1cccc(I)c1C(=O)NC(C)(C)CS(C)(=O)=O [FLUBENDIAMIDE] | 140 |  |  |  |
| CCCCCCCCCC(=O)O[C@@]12[C@H](OC(=O)[C@@H](C)CC)[C@@H](C)[C@@]3(O)[C@@H](C(=O)C(CO)=C[C@]4(O)C(=O)C(C)=C[C@@H]34)[C@@H]1C2(C)C |  | 5.18 | 161 (≈ 261 µM) |  |
| CCCCC/C=C\CCC(=O)O[C@@]12[C@H](OC(=O)[C@@H](C)CC)[C@@H](C)[C@@]3(O)[C@@H](C(=O)C(CO)=C[C@]4(O)C(=O)C(C)=C[C@@H]34)[C@@H]1C2(C)C | 190 | 63.4 | 200 (≈ 325 µM) |  |
| OC(Cn1cncn1)(Cn1cncn1)c1ccc(F)cc1F [FLUCONAZOLE] |  |  |  | 4.4 (≈ 14.4 µM) |
| CC/C=C\C/C=C\CCC(=O)O[C@@]12[C@H](OC(=O)[C@@H](C)CC)[C@@H](C)[C@@]3(O)[C@@H](C(=O)C(CO)=C[C@]4(O)C(=O)C(C)=C[C@@H]34)[C@@H]1C2(C)C | 160 | 11.9 | 159 (≈ 260 µM) |  |
| CC[C@H](C)C(=O)O[C@@]12[C@H](OC(=O)c3ccccc3)[C@@H](C)[C@@]3(O)[C@@H](C=C(CO)C[C@]4(O)C(=O)C(C)=C[C@@H]34)[C@@H]1C2(C)C |  | 5.1 |  |  |
| CC[C@H](C)C(=O)O[C@@H]1[C@@H](C)[C@@]2(O)[C@@H](C(=O)C(CO)=C[C@]3(O)C(=O)C(C)=C[C@@H]23)[C@@H]2C(C)(C)[C@]12OC(=O)[C@@H](C)CC |  | 14 | 15.1 (≈ 27.6 µM) |  |
| CCCCCCCC(=O)O[C@@]12[C@H](OC(=O)[C@@H](C)CC)[C@@H](C)[C@@]3(O)[C@@H](C(=O)C(CO)=C[C@]4(O)C(=O)C(C)=C[C@@H]34)[C@@H]1C2(C)C |  | 50.5 | 114 (≈ 193 µM) |  |
| C/C=C(\C)C(=O)O[C@@H]1[C@@H](C)[C@@]2(O)[C@@H](C(=O)C(CO)=C[C@]3(O)C(=O)C(C)=C[C@@H]23)[C@@H]2C(C)(C)[C@]12OC(=O)CC/C=C\CCCCC | 260 |  |  |  |
